Measured values taken from patent US4181715A (priority 1975, dated 1980).

Assays:
[1] = test system: rice blast pathogenic fungus (Pyricularia oryzae); type: in vivo; settings: 5 ppm
[2] = test system: Trichomonas vaginalis Ito; assay: Antitrichomonas activity test using mice; type: in vivo, Trichomonas vaginalis Ito in SLC-ICR strain male mice
Excerpt: Test Compounds: SF-1540-A' (substance SF-1540 treated with methanol). Control--Flagyl (MNZ, available from Shionogi Seiyaku K.K., Japan)=Metronidazol--1'-(2'-Hydroxyethyl)-2'-methyl-5'-nitroimidazole [drawing 1]
1. Test protozoa strain: Trichomonas vaginalis Ito
2. Host animals: SLC-ICR strain male mice of average body weight of 20 g. and 5-week age, each group consisting of 5 animals.
3. Inoculation of protozoa: Protozoa were inoculated to Bacto-Kupferberg Trichomonas base (Difco; 20% calf serum added), cultivation was conducted at 37° C. for 24 hours, propagated protozoa were collected and centrifuged at 1500 r.p.m. for 5 minutes and then washed twice with centrifugation in sterilized Locke-Ringer's solution. The supernatant was discarded and the residue was diluted with sterilized Ringer's solution so as to have a protozoal number of 500×10^4 ml. Each 0.2 ml. portion (the protozoal number of 100×10^4) was inoculated to mice at subcutaneous sites of the back thereof wherein fur was previously removed.
4. Preparation of test samples: Each test compound was asceptically weighed, finely-divided in a sterilized mortar and then suspended in a 1% CMC solution to form suspensions of given concentrations.
5. Dose and administration: The SF-1540-A' was used at 3 dose levels: 50 mg./kg. (1 mg./0.2 ml./mouse/day), 25 mg./kg. (0.5 mg./0.2 ml./mouse/day) and 12.5 mg./kg. (0.25 mg./0.2 ml./mouse/day), while Flagyl as control was used at 2 dose levels: 25 mg./kg. (0.5 mg./0.2 ml./mouse/day) and 12.5 mg./kg. (0.25 mg./0.2 ml./mouse/day). After 24 hours from protozoa inoculation, the SF-1540-A' was given subcutaneously and Flagyl orally once a day for 6 days (Total, 6 times). As control, each 0.2 ml. portion of a 1% CMC solution was subcutaneously administered.
Formation of an abscess at a subcutaneous site of the back of a host animal was visually detectable for its protuberance after 48 hours from the protozoa inoculation.
Size of abscess was measured when sacrificed and cultivated to confirm effectiveness of the test compound after 24 hours from the 6 administrations.

| SMILES | Preventive & curative value [1] | Average number of diseased spots per leaf ([1]; after 5 days) | difference from 1% CMC group (Tukey) ([2]; 12.5 mg./kg. orally) | difference from 1% CMC group (Tukey) ([2]; 25 mg./kg. orally) | abscess, visual observation ([2]; 25 mg./kg. orally once a day, after 3 administrations) | abscess at sacrifice, 24 hours after 6 administrations ([2]; mouse, in vivo, po) | bulge upon sacrifice ([2]; mouse, in vivo, po) |
| --- | --- | --- | --- | --- | --- | --- | --- |
| CN(CCC(N)CC(=O)NC1C=CC(n2ccc(N)nc2=O)OC1C(=O)O)C(=N)N (stereo not shown) [Blasticidin S] | 85% | 3.6 | – | – | – | – | – |
| Cc1ncc([N+](=O)[O-])n1CCO [Flagyl, 1'-(2'-Hydroxyethyl)-2'-methyl-5'-nitroimidazole] | – | – | significant at the 5% level of significance | significant at the 1% level of significance | a remarkable reduction in abscess | abscess disappeared | only a slight bulge |
